Reference: patent US10093675B2, “6,8-disubstituted-9-(heterocyclyl)purines, compositions containing these derivatives and their use in cosmetic and medicinal applications” (USTAV EXPERIMENTALNI BOTANIKY AV CR, V.V.I., priority 2014, dated 2018)

How the values were obtained:
[1] = Radical scavenging activity determined by ORAC (Oxygen Radical Absorbance Capacity); assay type: biochemical; conditions: Mean ± SD (n = 3); net area under the curve relative to trolox, equimolar basis
Procedure: The ability of compounds to scavenge free radicals in vitro was determined by Oxygen Radical Absorbance Capacity (ORAC) method. Fluorescein (100 μL, […]) and 25 μL of compound solution were added into each working well in a 96-well microplate preincubated at 37° C. Thereafter, 25 μL of 250 mM AAPH was quickly added, microplate was shaken for 5 s and the fluorescence (Ex. 485 nm, Em. 510 nm) was read every 3 min over 90 min by using microplate reader Infinite 200 (TECAN, Switzerland). The net area under the curve was used to express antioxidant activity relative to trolox which was used as a standard.

[2] = system: detached leaves of Triticum aestivum cv. Hereward; assay: Membrane lipid peroxidation (MDA, TBA method) in detached wheat leaves during dark senescence; assay type: in vivo; conditions: four days in the dark, Control 18.9 (±2.2)
Procedure: A typical symptom associated with senescence as a direct consequence of increased reactive oxygen species is lipid peroxidation. Therefore the levels of MDA, a decomposition product of lipid peroxidation, were measured in detached wheat leaves that were exposed to the prepared novel derivatives and kinetin for four days in the dark as described in Example 8. MDA levels were measured using a thiobarbituric acid (TBA) method. In detail, 100 mg of fresh plant material was homogenized by high speed shaking in a ball mill (MM301, Retsch, Germany) with 1 mL of 80% methanol. The crude extract was centrifuged at 10,000×g for 5 min, and 100 μL aliquot of supernatant was vortexed with 100 μL of 0.5% (w/v) TBA containing 0.1% (w/v) trichloroacetic acid, and the resulting solution was then incubated for 30 min at 95° C. The samples were quickly cooled on ice and recentrifuged for 5 min at 1000×g. The absorbance of supernatant was measured at 532 nm with background subtraction at 600 nm and the amount of MDA-TBA complex was calculated from the coefficient of absorbance 155 mM^−1cm^−1.
Seeds of winter wheat, Triticum aestivum cv. Hereward, were washed under running water for 24 hours and then sown on vermiculite soaked with Knop's solution. They were placed in the grown chamber at 25° C. with a 16/8 hours light period at […]. After 7 days, the first leaf was fully developed and the second leaf had started to grow. A tip section of the first leaf, approximately 35 mm long, was removed from 5 seedlings and trimmed slightly to a combined weight of 100 mg. The basal ends of the five leaf tips were placed in the wells of a microtiter polystyrene plate containing […] of a cytokinin solution each. The entire plate was inserted into a plastic box lined with paper tissues soaked in distilled water to prevent leaf sections from drying out. After 96 hours incubation in the dark at 25° C., the leaves were removed and chlorophyll extracted by heating at 80 C for 10 min in 5 ml of 80% ethanol (v/v). The sample volume was then restored to 5 ml by the addition of 80% ethanol (v/v). The absorbance of the extract was recorded at 665 nm. In addition, chlorophyll extracts from fresh leaves and leaf tips incubated in deionized water were measured. From the obtained data, the concentration with highest activity was selected for each compound tested. Relative activity of the compound at this concentration was calculated (see Table 6 below). The activity obtained for 10^−4 M kinetin (Kin) was set as 100%. The values shown are means of five replicates and the whole experiment was repeated twice.

[3] = system: human diploid fibroblasts (HDF cells; HDF25, HDF45, HDF80); assay: Inhibition of human cell aging: senescent cells by beta-galactosidase staining; assay type: cell-based
Method in brief: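 Cells of passages 25, 45 and 80 fixed 5 min at room temperature in 2% formaldehyde/0.2% glutaraldehyde in PBS, then incubated at 37° C with beta-galactosidase substrate. Senescent cells identified by blue staining.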

C. elegans fem-1(hc17) = assay: Lifespan of C. elegans; assay type: in vivo; conditions: 100 microM, treated from 4th day of adulthood; DMSO vehiculum 12.98
From the text: C. elegans is a standard model of aging. Its relevance for human aging is generally accepted based primarily on molecular similarity in aging mechanisms and evolutionary conservation of several pathways related to health- and life-span including insulin/IGF-I signaling. (Olsen et. al 2006, doi: 10.1196/annals.1354.015) It is used for drug screening campaigns (reviewed e.g. in Kaletta et al. 2006, doi: 10.1038/nrd2031) including those searching for compounds with cytoprotective activity. Compounds with a life-span extending effect in C. elegans and known health benefits in human include resveratrol, ECG and curcumin (Liao et, al 2011, doi: 10.1016/j.mad.2011.07.008; Wood et al. 2004, doi: 10.1038/nature02789; Abbas et al. 2009, doi: 10.1055/s-0028-1088378). The strain used in this experiment was fem-1(hc17). When grown at 25° C. all animals develop into females which prevents further reproduction and contamination of experiment with progeny. Age-synchronized adults (obtained by sodium hypochlorite treatment) were maintained in liquid S-complete medium. […] Living worms (i.e those moving when exposed to intensive light) were counted in a microscope every 2-3 days until the worms reached 22nd day of adulthood. The effects of the compounds on worm life-span were evaluated in software OASIS (Yang et al 2011, doi: 10.1371/journal.pone.002352).

## NCCNc1nc2c(NCc3ccco3)ncnc2n1C1CCCCO1 (stereo not drawn) [Compound 170, 8-(2-Aminoethylamino)-6-furfurylamino-9-(tetrahydropyran-2-yl)-9H-purine]
[1]
  ORAC (compound/trolox ratio): 181.3 ± 5.2
[2]
  MDA (nmol/g FW): 10.4 (±0.7) nmol/g FW

## Ic1nc2c(NCc3ccccc3)ncnc2n1C1CCCCO1 (stereo not drawn) [Compound 46, 8-Iodo-6-benzylamino-9-(tetrahydropyran-2-yl)-9H-purine]
[1]
  ORAC (compound/trolox ratio): 1.4 ± 0.0
[2]
  MDA (nmol/g FW): 10.9 (±1.0) nmol/g FW

## CC(C)=CCNc1nc(Cl)nc2c1nc(N)n2C1CCCCO1 (stereo not drawn) [Compound 107, 8-Amino-6-(3-methylbut-2-en-1-ylamino)-chloro-9-(tetrahydropyran-2-yl)-9H-purine]
[1]
  ORAC (compound/trolox ratio): 24.4 ± 1.5
[2]
  MDA (nmol/g FW): 10.5 (±0.5) nmol/g FW

## c1ccc(CNc2ncnc3nc[nH]c23)cc1 [6-benzylaminopurine, reference compound]
[3]; human diploid fibroblasts passage 25, beta-galactosidase staining
  SENESCENT CELLS (%) HDF25: 5%
[3]; human diploid fibroblasts passage 45, beta-galactosidase staining
  SENESCENT CELLS (%) HDF45: 9%
[3]; human diploid fibroblasts passage 80, beta-galactosidase staining
  SENESCENT CELLS (%) HDF80: 45%
C. elegans fem-1(hc17)
  restricted mean of life-span: 12.95

## CC(C)=CCNc1ncnc2c1nc(NCCN)n2C1CCCCO1 (stereo not drawn) [Compound 172, 8-(2-Aminoethylamino)-6-(3-methylbut-2-en-1-ylamino)-9-(tetrahydropyran-2-yl)-9H-purine]
[1]
  ORAC (compound/trolox ratio): 28.3 ± 1.6
[2]
  MDA (nmol/g FW): 10.8 (±0.9) nmol/g FW
